Among the data in patent publication US12780800B1, “Triazole-pyridinyl substituted azacyclohexyl acetic acid compounds as LPA receptor antagonists” (Viva Star Biosciences Limited, priority 2021, dated 2022) are IC50 values, retold here.

For this experiment, the target named is T1, LPA1 (Homo sapiens, UniProt Q92633).
T1 construct: ProLink (PK) beta-galactosidase enzyme-fragment tag; host or cells: CHO-K1
T1 sequence (Q92633 whole entry, the tested form may be a part): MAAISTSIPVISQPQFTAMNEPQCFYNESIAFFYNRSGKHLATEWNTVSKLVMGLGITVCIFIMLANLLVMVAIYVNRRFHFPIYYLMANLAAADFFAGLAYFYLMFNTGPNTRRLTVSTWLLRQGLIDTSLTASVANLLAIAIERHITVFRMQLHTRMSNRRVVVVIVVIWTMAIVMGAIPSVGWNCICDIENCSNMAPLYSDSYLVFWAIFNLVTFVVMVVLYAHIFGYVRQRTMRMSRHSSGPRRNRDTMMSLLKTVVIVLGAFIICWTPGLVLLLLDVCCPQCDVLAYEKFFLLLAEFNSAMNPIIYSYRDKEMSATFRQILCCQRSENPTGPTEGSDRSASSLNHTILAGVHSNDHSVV
As to the kind of experiment: LPA1 calcium flux assay (LPA1 functional antagonist assay). The experiment is classed as cell-based. The conditions noted are these: PathHunter CHO-K1 EDG2 β-Arrestin cell line; calcium indicator dye; stimulated with EC80 concentration of LPA; FLIPR Tetra. Put shortly:
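The LPA1 antagonist readout was intracellular calcium flux, and IC50 values were calculated from it. Plates stood 30 min at RT after compound addition. Cells, grown overnight, had first taken up calcium dye over 45 min at 37 °C.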
(A change in cytosolic calcium serves as a functional read-out for many receptors and channels.)
The IC50 is the midpoint of a concentration-inhibition curve. Consider `Cc1nc(-c2nnn(C)c2Cn2ccn(CC3CC3)c2=O)ccc1N1C[C@@H](CC(=O)O)CC(F)(F)C1` [Example 72, (S)-2-(1-(6-(5-((3-(cyclopropylmethyl)-2-oxo-2,3-dihydro-1H-imidazol-1-yl)methyl)-1-methyl-1H-1,2,3-triazol-4-yl)-2-methylpyridin-3-yl)-5,5-difluoropiperidin-3-yl)acetic acid], for which the IC50 was over 5000 nM.
Next, `CCC(C)n1ccn(Cc2c(-c3ccc(N4C[C@@H](CC(=O)O)CC(F)(F)C4)c(C)n3)nnn2C)c1=O` (stereo partly drawn) [Example 73, 2-((3S)-1-(6-(5-((3-(sec-butyl)-2-oxo-2,3-dihydro-1H-imidazol-1-yl)methyl)-1-methyl-1H-1,2,3-triazol-4-yl)-2-methylpyridin-3-yl)-5,5-difluoropiperidin-3-yl)acetic acid]: over 5000 nM.
As to `CCc1nc(-c2nnn(C)c2COc2nccc(C3CCC3)n2)ccc1N1CCC[C@H](CC(=O)O)C1` [Example 74, (R)-2-(1-(6-(5-(((4-cyclobutylpyrimidin-2-yl)oxy)methyl)-1-methyl-11H-1,2,3-triazol-4-yl)-2-ethylpyridin-3-yl)piperidin-3-yl)acetic acid], the IC50 is under 100 nM.
In the case of `Cc1nc(-c2nnn(C)c2COc2nccc(C3CC3)n2)ccc1N1C[C@@H](CC(=O)O)CC(F)(F)C1` [Example 75, (S)-2-(1-(6-(5-(((4-cyclopropylpyrimidin-2-yl)oxy)methyl)-1-methyl-1H-1,2,3-triazol-4-yl)-2-methylpyridin-3-yl)-5,5-difluoropiperidin-3-yl)acetic acid], the IC50 was 500 to 5000 nM.
As for `Cc1nc(-c2nnn(C)c2COc2nccc(C3CCC3)n2)ccc1N1C[C@@H](CC(=O)O)CC(F)(F)C1` [Example 76, (S)-2-(1-(6-(5-(((4-cyclobutylpyrimidin-2-yl)oxy)methyl)-1-methyl-1H-1,2,3-triazol-4-yl)-2-methylpyridin-3-yl)-5,5-difluoropiperidin-3-yl)acetic acid], the IC50 is under 100 nM.
`Cc1nc(-c2nnn(C)c2COc2nccc(C(C)C)n2)ccc1N1C[C@@H](CC(=O)O)CC(F)(F)C1` [Example 77, (S)-2-(5,5-difluoro-1-(6-(5-(((4-isopropylpyrimidin-2-yl)oxy)methyl)-1-methyl-1H-1,2,3-triazol-4-yl)-2-methylpyridin-3-yl)piperidin-3-yl)acetic acid]: the concentration for half-maximal inhibition (IC50) was in the range of 100 to 500 nM.
As to `Cc1nc(-c2nnn(C)c2COc2cc(-n3cccn3)ncn2)ccc1N1C[C@@H](CC(=O)O)CC(F)(F)C1` [Example 78, (S)-2-(1-(6-(5-(((6-(1H-pyrazol-1-yl)pyrimidin-4-yl)oxy)methyl)-1-methyl-1H-1,2,3-triazol-4-yl)-2-methylpyridin-3-yl)-5,5-difluoropiperidin-3-yl)acetic acid], the concentration for half-maximal inhibition (IC50) was under 100 nM.
Consider `CCc1nc(-c2nnn(C)c2COc2nccc(C3CCC3)n2)ccc1N1C[C@@H](CC(=O)O)CC(F)(F)C1` [Example 79, (S)-2-(1-(6-(5-(((4-cyclobutylpyrimidin-2-yl)oxy)methyl)-1-methyl-1H-1,2,3-triazol-4-yl)-2-ethylpyridin-3-yl)-5,5-difluoropiperidin-3-yl)acetic acid], for which the half-maximal inhibitory concentration (IC50) was under 100 nM.
Take `CCc1nc(-c2nnn(C)c2COc2cc(C3CCC3)ncn2)ccc1N1CCC[C@H](CC(=O)O)C1` [Example 80, (R)-2-(1-(6-(5-(((6-cyclobutylpyrimidin-4-yl)oxy)methyl)-1-methyl-1H-1,2,3-triazol-4-yl)-2-ethylpyridin-3-yl)piperidin-3-yl)acetic acid]: the IC50 was under 100 nM.
`CCc1nc(-c2nnn(C)c2COc2nccc(C3CCC3)n2)ccc1N1CCC[C@@H](CC(=O)O)C1` [Example 81, (S)-2-(1-(6-(5-(((4-cyclobutylpyrimidin-2-yl)oxy)methyl)-1-methyl-1H-1,2,3-triazol-4-yl)-2-ethylpyridin-3-yl)piperidin-3-yl)acetic acid]: the IC50 is over 5000 nM.
Next, `CCc1nc(-c2nnn(C)c2COc2cc(-n3cccn3)ncn2)ccc1N1CCC[C@H](CC(=O)O)C1` [Example 82, (R)-2-(1-(6-(5-(((6-(1H-pyrazol-1-yl)pyrimidin-4-yl)oxy)methyl)-1-methyl-1H-1,2,3-triazol-4-yl)-2-ethylpyridin-3-yl)piperidin-3-yl)acetic acid]: under 100 nM; `CCc1nc(-c2nnn(C)c2COc2nccc(N3CCCC3)n2)ccc1N1CCC[C@H](CC(=O)O)C1` [Example 83, (R)-2-(1-(2-ethyl-6-(1-methyl-5-(((4-(pyrrolidin-1-yl)pyrimidin-2-yl)oxy)methyl)-1H-1,2,3-triazol-4-yl)pyridin-3-yl)piperidin-3-yl)acetic acid]: 100 to 500 nM.
Regarding `Cc1nc(-c2nnn(C)c2COc2nccc(C3CCC3)n2)ccc1N1CCC[C@H](CC(=O)O)C1` [Example 84, (R)-2-(1-(6-(5-(((4-cyclobutylpyrimidin-2-yl)oxy)methyl)-1-methyl-1H-1,2,3-triazol-4-yl)-2-methylpyridin-3-yl)piperidin-3-yl)acetic acid], the IC50 is under 100 nM.
`Cc1nc(-c2nnn(C)c2COc2cc(-n3cccn3)ncn2)ccc1N1CCC[C@H](CC(=O)O)C1` [Example 85, (R)-2-(1-(6-(5-(((6-(1H-pyrazol-1-yl)pyrimidin-4-yl)oxy)methyl)-1-methyl-1H-1,2,3-triazol-4-yl)-2-methylpyridin-3-yl)piperidin-3-yl)acetic acid]: the half-maximal inhibitory concentration (IC50) is under 100 nM.
Consider `Cc1nc(-c2nnn(C)c2COc2nnccc2CC(C)C)ccc1N1C[C@@H](CC(=O)O)CC(F)(F)C1` [Example 86, (S)-2-(5,5-difluoro-1-(6-(5-(((4-isobutylpyridazin-3-yl)oxy)methyl)-1-methyl-1H-1,2,3-triazol-4-yl)-2-methylpyridin-3-yl)piperidin-3-yl)acetic acid], for which the IC50 lay within 100 to 500 nM.
Turning to `CCc1nc(-c2cnn(C)c2COc2nccc(C3CCC3)n2)ncc1N1C[C@@H](CC(=O)O)CC(F)(F)C1` [Example 87, (S)-2-(1-(2-(5-(((4-cyclobutylpyrimidin-2-yl)oxy)methyl)-1-methyl-1H-pyrazol-4-yl)-4-ethylpyrimidin-5-yl)-5,5-difluoropiperidin-3-yl)acetic acid], the concentration for half-maximal inhibition (IC50) was under 100 nM.
On to `CCc1nc(-c2nnn(C)c2COc2nccc(C3CCC3)n2)cc(F)c1N1CCCC(CC(=O)O)C1` (centres unmarked) [Example 88, 2-(1-(6-(5-(((4-cyclobutylpyrimidin-2-yl)oxy)methyl)-1-methyl-1H-1,2,3-triazol-4-yl)-2-ethyl-4-fluoropyridin-3-yl)piperidin-3-yl)acetic acid], for which the IC50 fell in the range of 100 to 500 nM.
Take `Cc1nc(-c2cnn(C)c2COc2cc(-n3cccn3)ncn2)ccc1N1C[C@@H](CC(=O)O)CC(F)(F)C1` [Example 89, (S)-2-(1-(6-(5-(((6-(1H-pyrazol-1-yl)pyrimidin-4-yl)oxy)methyl)-1-methyl-1H-pyrazol-4-yl)-2-methylpyridin-3-yl)-5,5-difluoropiperidin-3-yl)acetic acid]: the IC50 was under 100 nM.
Next, `CCc1nc(-c2cnn(C)c2COc2cc(-n3cccn3)ncn2)ccc1N1CCC[C@H](CC(=O)O)C1` [Example 90, (R)-2-(1-(6-(5-(((6-(1H-pyrazol-1-yl)pyrimidin-4-yl)oxy)methyl)-1-methyl-1H-pyrazol-4-yl)-2-ethylpyridin-3-yl)piperidin-3-yl)acetic acid]: under 100 nM; `CCc1nc(-c2nnn(C)c2COc2ncnc(C3CCC3)n2)ccc1N1CCC[C@H](CC(=O)O)C1` [Example 95, (R)-2-(1-(6-(5-(((4-cyclobutyl-1,3,5-triazin-2-yl)oxy)methyl)-1-methyl-1H-1,2,3-triazol-4-yl)-2-ethylpyridin-3-yl)piperidin-3-yl)acetic acid]: under 100 nM; `CCc1nc(-c2nnn(C)c2COc2nc(C3CCC3)nc(N3CCOCC3)n2)ccc1N1CCC[C@H](CC(=O)O)C1` [Example 96, (R)-2-(1-(6-(5-(((4-cyclobutyl-6-morpholino-1,3,5-triazin-2-yl)oxy)methyl)-1-methyl-1H-1,2,3-triazol-4-yl)-2-ethylpyridin-3-yl)piperidin-3-yl)acetic acid]: 100 to 500 nM.
The result for `CCc1nc(-c2nnn(C)c2COc2cc(-n3ccnn3)ncn2)ccc1N1CCC[C@H](CC(=O)O)C1` [Example 97, 2-[(3R)-1-{2-ethyl-6-[1-methyl-5-({[6-(1H-1,2,3-triazol-1-yl)pyrimidin-4-yl]oxy}methyl)-1H-1,2,3-triazol-4-yl]pyridin-3-yl}piperidin-3-yl]acetic acid] reads 100 to 500 nM; that for `CCc1nc(-c2nnn(C)c2COc2cc(-n3nccn3)ncn2)ccc1N1CCC[C@H](CC(=O)O)C1` [Example 98, (R)-2-(1-(6-(5-(((6-(2H-1,2,3-triazol-2-yl)pyrimidin-4-yl)oxy)methyl)-1-methyl-1H-1,2,3-triazol-4-yl)-2-ethylpyridin-3-yl)piperidin-3-yl)acetic acid], 100 to 500 nM; that for `Cc1nc(-c2nnn(C)c2COc2cc(-n3ccnn3)ncn2)ccc1N1C[C@@H](CC(=O)O)CC(F)(F)C1` [Example 99, (S)-2-(1-(6-(5-(((6-(1H-1,2,3-triazol-1-yl)pyrimidin-4-yl)oxy)methyl)-1-methyl-1H-1,2,3-triazol-4-yl)-2-methylpyridin-3-yl)-5,5-difluoropiperidin-3-yl)acetic acid], under 100 nM.
For the molecule `CCc1nc(-c2nnn(C)c2COc2nccc(-n3cccn3)n2)ccc1N1CCC[C@H](CC(=O)O)C1` [Example 101, (R)-2-(1-(6-(5-(((4-(1H-pyrazol-1-yl)pyrimidin-2-yl)oxy)methyl)-1-methyl-1H-1,2,3-triazol-4-yl)-2-ethylpyridin-3-yl)piperidin-3-yl)acetic acid], the IC50 is under 100 nM.
On to `Cc1nc(-c2nnn(C)c2COc2nccc(-n3cccn3)n2)ccc1N1CCC[C@H](CC(=O)O)C1` [Example 102, (R)-2-(1-(6-(5-(((4-(1H-pyrazol-1-yl)pyrimidin-2-yl)oxy)methyl)-1-methyl-1H-1,2,3-triazol-4-yl)-2-methylpyridin-3-yl)piperidin-3-yl)acetic acid], for which the IC50 is under 100 nM.
